Consider 10 molecules from ChEMBL document CHEMBL1201862, “PubChem BioAssay data set” (2004).

Test systems include 786-0; EKVX; HOP-92; K562; MDA-MB-231; MOLT-4; Malme-3M; NCI-H23; NCI-H460; OVCAR-4; OVCAR-5; PC-3; RXF 393; SF-295; SK-MEL-2; SK-MEL-5; SN12C; SNB-19; T47D; U-251.
Holding throughout (test): NCI-60 cell line screen, 48 h

Each structure is given as a SMILES string.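 96-well plates; 48 h exposure; 5 concentrations. Endpoints by linear interpolation between flanking doses. Not reached: highest tested concentration assigned. GI50 = concentration required for 50% inhibition of growth.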 Calls of active or inactive are those of the source. Cut-off read from the data, not from the text of the source: active = GI50 up to about 1.1 µM and inactive = higher.

With `N#Cc1c(Cl)cccc1Oc1ccc(S(=O)(=O)N/C(=N\O)Nc2ccc(Cl)cc2)cc1`, the GI50 with 786-0 was 13.6 µM (inactive); with EKVX, 15.5 µM (inactive); in the experiment on HOP-92, 11 µM (inactive); in the experiment on K562, 24.2 µM (inactive); in the experiment with MDA-MB-231, 16.3 µM (inactive); in the experiment on MOLT-4, 18.4 µM (inactive). The GI50 with Malme-3M is 19.2 µM (inactive); with NCI-H23, 17.6 µM (inactive); with NCI-H460, 17.9 µM (inactive); in the experiment with OVCAR-4, 14.8 µM (inactive); with OVCAR-5, 19.3 µM (inactive); in the experiment with PC-3, 16.4 µM (inactive). The GI50 in the experiment on RXF 393 is 17.9 µM (inactive); in the experiment on SF-295, 17.2 µM (inactive); in the experiment with SK-MEL-2 it was 17.6 µM (inactive); in the experiment with SK-MEL-5 it was 17.2 µM (inactive); in the experiment with SN12C it was 14.8 µM (inactive); in the experiment with SNB-19, 16.3 µM (inactive). Also, the GI50 in the experiment on T47D is 13.2 µM (inactive); with U-251, 17 µM (inactive).

On to `COC(=O)[C@]1(Cc2ccc3ccccc3c2)CCCCCCN1C(=O)c1ccccc1`, for which the GI50 in the experiment on 786-0 was > 37 µM (inactive); in the experiment on EKVX, > 27.7 µM (inactive); in the experiment with HOP-92, > 38.5 µM (inactive); in the experiment on K562 it was > 22 µM (inactive); with MDA-MB-231, > 36.4 µM (inactive); in the experiment on MOLT-4 it was > 21.3 µM (inactive). In addition, the GI50 is > 38.5 µM (inactive) with Malme-3M; > 29.3 µM (inactive) with NCI-H23; > 34.4 µM (inactive) in the experiment on NCI-H460; 12.7 µM (inactive) in the experiment with OVCAR-4; > 38 µM (inactive) in the experiment with OVCAR-5; > 22.4 µM (inactive) in the experiment with PC-3. Also, the GI50 in the experiment on RXF 393 was > 32.2 µM (inactive); in the experiment on SF-295, > 23.4 µM (inactive); in the experiment on SK-MEL-2 it was 12.6 µM (inactive); in the experiment with SK-MEL-5, > 100 µM (inactive); with SN12C, > 37 µM (inactive); in the experiment on SNB-19 it was > 44.6 µM (inactive). Also, the results for the GI50 in the experiment with T47D and in the experiment with U-251 were > 30.3 µM (inactive) and > 26.7 µM (inactive), respectively.

Consider `Clc1cc(Cl)cc(/N=C/C=C/Nc2cc(Cl)cc(Cl)c2)c1`, for which the GI50 is 17.3 µM (inactive) in the experiment on 786-0; 5.12 µM (inactive) with EKVX; 30.8 µM (inactive) in the experiment on HOP-92; 23.6 µM (inactive) in the experiment with K562; 14.2 µM (inactive) in the experiment with MDA-MB-231; 19.8 µM (inactive) with MOLT-4. For the same molecule, the GI50 with Malme-3M is 30.5 µM (inactive); with NCI-H23, 14.2 µM (inactive); in the experiment with NCI-H460, 19.1 µM (inactive); in the experiment on OVCAR-4, 14.6 µM (inactive); in the experiment with OVCAR-5 it was 21.6 µM (inactive); in the experiment on PC-3 it was 16.4 µM (inactive). Further, the GI50 with RXF 393 was 17.3 µM (inactive); in the experiment with SF-295, 23 µM (inactive); in the experiment with SK-MEL-2, 19.9 µM (inactive); with SK-MEL-5 it was 15.1 µM (inactive); with SN12C, 17.4 µM (inactive); in the experiment with SNB-19, 21.4 µM (inactive). The GI50 with T47D was 22.9 µM (inactive); in the experiment with U-251, 17.6 µM (inactive).

As for `CC12CP(=O)(O)CC1C2(Cl)Cl` (stereo not given), the GI50 in the experiment with 786-0, with EKVX, in the experiment with HOP-92, with K562, with MDA-MB-231 and in the experiment with MOLT-4 was > 100 µM (inactive) each time. The GI50 in the experiment on Malme-3M, in the experiment with NCI-H23, in the experiment with NCI-H460, in the experiment with OVCAR-4, with OVCAR-5 and in the experiment on PC-3 was > 100 µM (inactive) in each case. Besides, the GI50 in the experiment with RXF 393, in the experiment on SF-295, in the experiment on SK-MEL-2, with SK-MEL-5, with SN12C and with SNB-19 was > 100 µM (inactive) each time. In addition, the GI50 in the experiment on T47D and in the experiment with U-251 was > 100 µM (inactive) in each case.

Turning to `COc1ccc(C(=C(Cl)c2ccccc2)c2ccc(OC)cc2)cc1`, the GI50 in the experiment with 786-0, with EKVX, in the experiment with HOP-92, in the experiment on K562, in the experiment on MDA-MB-231 and in the experiment on MOLT-4 was > 100 µM (inactive) each time. Also, the GI50 with Malme-3M, in the experiment on NCI-H23, in the experiment with NCI-H460, with OVCAR-4, with OVCAR-5 and in the experiment with PC-3 was > 100 µM (inactive) throughout. The GI50 in the experiment with RXF 393 is > 100 µM (inactive); in the experiment with SF-295, > 100 µM (inactive); in the experiment with SK-MEL-2, > 100 µM (inactive); in the experiment with SK-MEL-5, 79.3 µM (inactive); with SN12C, > 100 µM (inactive); in the experiment on SNB-19, > 100 µM (inactive). In addition, the GI50 in the experiment with T47D was 16.1 µM (inactive); with U-251, > 100 µM (inactive).

For the molecule `O=C(O)[C@@H]1C[C@@H](O)CN1C(=O)OCc1ccccc1`, the GI50 in the experiment with 786-0, in the experiment on EKVX, in the experiment with HOP-92, in the experiment with K562, in the experiment on MDA-MB-231 and with MOLT-4 was > 100 µM (inactive) in each case. Also, the GI50 in the experiment with Malme-3M, with NCI-H23, with NCI-H460, in the experiment on OVCAR-4, in the experiment on OVCAR-5 and in the experiment on PC-3 was > 100 µM (inactive) throughout. For the same molecule, the GI50 in the experiment with RXF 393, in the experiment on SF-295, in the experiment with SK-MEL-2, in the experiment on SK-MEL-5, with SN12C and in the experiment on SNB-19 was > 100 µM (inactive) throughout. The GI50 in the experiment with T47D and in the experiment with U-251 was > 100 µM (inactive) throughout.

In the case of `Cc1ccc(N)cc1.O=S(=O)(O)/C(=C\c1ccccc1)c1ccccc1`, the GI50 in the experiment with 786-0, in the experiment with EKVX, in the experiment on HOP-92, in the experiment with K562, in the experiment with MDA-MB-231 and in the experiment on MOLT-4 was > 100 µM (inactive) each time. The GI50 in the experiment with Malme-3M, in the experiment on NCI-H23, in the experiment on NCI-H460, with OVCAR-4, in the experiment on OVCAR-5 and in the experiment with PC-3 was > 100 µM (inactive) each time. The GI50 is > 100 µM (inactive) in the experiment on RXF 393; > 100 µM (inactive) with SF-295; > 100 µM (inactive) with SK-MEL-2; 93.3 µM (inactive) in the experiment with SK-MEL-5; > 100 µM (inactive) in the experiment with SN12C; > 100 µM (inactive) with SNB-19. The GI50 in the experiment on T47D and in the experiment with U-251 was > 100 µM (inactive) throughout.

`CC1CCC(=O)C(C(=O)CC2CC(=O)NC(=O)C2)C1` (stereo not given): the GI50 with 786-0, in the experiment on EKVX, with HOP-92, in the experiment with K562, with MDA-MB-231 and in the experiment with MOLT-4 was > 100 µM (inactive) each time. In addition, the GI50 with Malme-3M, in the experiment on NCI-H23, in the experiment on NCI-H460, in the experiment with OVCAR-4, with OVCAR-5 and in the experiment on PC-3 was > 100 µM (inactive) throughout. Also, the GI50 in the experiment with RXF 393, in the experiment with SF-295, with SK-MEL-2, in the experiment with SK-MEL-5, in the experiment with SN12C and in the experiment on SNB-19 was > 100 µM (inactive) in each case. Also, the GI50 with T47D and with U-251 was > 100 µM (inactive) in each case.

For the molecule `CN(CCCNC(=O)c1nn(-c2ccc(Cl)cc2Cl)c2c1Cc1ccccc1-2)CCCNC(=O)c1nn(-c2ccc(Cl)cc2Cl)c2c1Cc1ccccc1-2`, the GI50 is 1.67 µM (inactive) with 786-0; 1.66 µM (inactive) in the experiment on EKVX; 1.61 µM (inactive) in the experiment on HOP-92; 0.944 µM (active) with K562; 1.87 µM (inactive) with MDA-MB-231; 1.32 µM (inactive) with MOLT-4. Besides, the GI50 in the experiment on Malme-3M was 1.78 µM (inactive); in the experiment with NCI-H23, 2 µM (inactive); in the experiment with NCI-H460, 1.65 µM (inactive); in the experiment on OVCAR-4, 0.285 µM (active); in the experiment on OVCAR-5, 1.57 µM (inactive); in the experiment on PC-3, 1.73 µM (inactive). Besides, the GI50 in the experiment with RXF 393 was 1.77 µM (inactive); in the experiment with SF-295, 1.72 µM (inactive); in the experiment with SK-MEL-2, 1.92 µM (inactive); with SK-MEL-5 it was 1.68 µM (inactive); in the experiment on SN12C, 1.67 µM (inactive); in the experiment with SNB-19, 1.77 µM (inactive). Further, the GI50 in the experiment with T47D was 1.92 µM (inactive); in the experiment with U-251, 1.79 µM (inactive).

With `CC(=O)O[C@@H]1[C@H](C(C)C)[C@@H](OC(C)=O)C/C(C)=C/CC[C@]2(C)O[C@@H]12`, the GI50 in the experiment on 786-0, in the experiment on EKVX, in the experiment with HOP-92, with K562, in the experiment on MDA-MB-231 and in the experiment with MOLT-4 was > 100 µM (inactive) each time. For the same molecule, the GI50 in the experiment on Malme-3M, in the experiment on NCI-H23, in the experiment on NCI-H460, with OVCAR-4, in the experiment with OVCAR-5 and in the experiment on PC-3 was > 100 µM (inactive) each time. The GI50 in the experiment on RXF 393, with SF-295, in the experiment on SK-MEL-2, in the experiment on SK-MEL-5, in the experiment with SN12C and in the experiment on SNB-19 was > 100 µM (inactive) throughout. For the same molecule, the GI50 in the experiment on T47D and in the experiment on U-251 was > 100 µM (inactive) in each case.
